Source: ChEMBL document CHEMBL1201862, “PubChem BioAssay data set” (2004)
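1) Cells in 96-well plates. 2) Compound, 48 h, 5 concentrations. 3) Linear interpolation between surrounding doses. 4) Unreached endpoint = highest concentration. Abbreviation: GI50, concentration required for 50% inhibition of growth.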 The source made the active and inactive calls. Rule as the data show it: active = GI50 up to about 1.1 µM and inactive = higher.

Tests used:
Assay in all cases: NCI tumour cell line growth inhibition, 48 h
[1] = test system: Malme-3M
[2] = test system: M19-MEL
[3] = test system: MCF7
[4] = test system: SK-OV-3
[5] = test system: XF498
[6] = test system: RPMI-8226
[7] = test system: SF-295
[8] = test system: SK-MEL-2
[9] = test system: NCI/ADR-RES
[10] = test system: DMS-273
[11] = test system: OVCAR-3
[12] = test system: DLD-1
[13] = test system: HCT-116
[14] = test system: HCC 2998
[15] = test system: SF-268
[16] = test system: MOLT-4
[17] = test system: RXF 393
[18] = test system: K562
[19] = test system: HOP-62
[20] = test system: SN12C
[21] = test system: KM12
[22] = test system: NCI-H460
[23] = test system: COLO 205
[24] = test system: A549
[25] = test system: HT-29
[26] = test system: NCI-H226
[27] = test system: OVCAR-8
[28] = test system: OVCAR-4
[29] = test system: SF-539
[30] = test system: UO-31
[31] = test system: UACC-257
[32] = test system: UACC-62
[33] = test system: SNB-75
[34] = test system: HCT-15
[35] = test system: EKVX
[36] = test system: A498
[37] = test system: SK-MEL-28
[38] = test system: SNB-78
[39] = test system: KM-20L2
[40] = test system: OVCAR-5
[41] = test system: SW-620
[42] = test system: SK-MEL-5
[43] = test system: HL-60
[44] = test system: DMS-114
[45] = test system: IGROV-1
[46] = test system: U-251
[47] = test system: LOX IMVI
[48] = test system: NCI-H522
[49] = test system: SNB-19
[50] = test system: CCRF-CEM
[51] = test system: NCI-H23
[52] = test system: HOP-18
[53] = test system: SR
[54] = test system: ACHN
[55] = test system: TK-10
[56] = test system: CAKI-1
[57] = test system: HOP-92
[58] = test system: LXFL 529
[59] = test system: 786-0
[60] = test system: M14

CSCC[C@@H](NC(=O)[C@H](CC(C)C)NC(=O)C(Cc1cnc[nH]1)NC(=O)CNC(=O)[C@@H](NC(=O)[C@H](C)NC(=O)[C@H](Cc1cn(C=O)c2ccccc12)NC(=O)[C@H](CCC(N)=O)NC(=O)[C@@H](N)CC(N)=O)C(C)C)C(N)=O (some centres not stated)
GI50 [1]: > 100 µM (inactive)
GI50 [2]: > 100 µM (inactive)
GI50 [3]: > 100 µM (inactive)
GI50 [4]: > 100 µM (inactive)
GI50 [5]: > 100 µM (inactive)
GI50 [6]: > 100 µM (inactive)
GI50 [7]: > 100 µM (inactive)
GI50 [8]: > 100 µM (inactive)
GI50 [9]: > 100 µM (inactive)
GI50 [10]: > 100 µM (inactive)
GI50 [11]: > 100 µM (inactive)
GI50 [12]: > 100 µM (inactive)
GI50 [13]: > 100 µM (inactive)
GI50 [14]: > 100 µM (inactive)
GI50 [15]: > 100 µM (inactive)
GI50 [16]: > 100 µM (inactive)
GI50 [17]: > 100 µM (inactive)
GI50 [18]: > 100 µM (inactive)
GI50 [19]: > 100 µM (inactive)
GI50 [20]: > 100 µM (inactive)
GI50 [21]: > 100 µM (inactive)
GI50 [22]: > 100 µM (inactive)
GI50 [23]: > 100 µM (inactive)
GI50 [24]: > 100 µM (inactive)
GI50 [25]: > 100 µM (inactive)
GI50 [26]: > 100 µM (inactive)
GI50 [27]: > 100 µM (inactive)
GI50 [28]: > 100 µM (inactive)
GI50 [29]: > 100 µM (inactive)
GI50 [30]: > 100 µM (inactive)
GI50 [31]: > 100 µM (inactive)
GI50 [32]: > 100 µM (inactive)
GI50 [33]: > 100 µM (inactive)
GI50 [34]: > 100 µM
GI50 [35]: > 100 µM (inactive)
GI50 [36]: > 100 µM (inactive)
GI50 [37]: > 100 µM (inactive)
GI50 [38]: > 100 µM (inactive)
GI50 [39]: > 100 µM (inactive)
GI50 [40]: > 100 µM (inactive)
GI50 [41]: > 100 µM (inactive)
GI50 [42]: > 100 µM (inactive)
GI50 [43]: > 100 µM (inactive)
GI50 [44]: > 100 µM (inactive)
GI50 [45]: > 100 µM (inactive)
GI50 [46]: > 100 µM (inactive)
GI50 [47]: 53.8 µM (inactive)
GI50 [48]: > 100 µM (inactive)
GI50 [49]: > 100 µM (inactive)
GI50 [50]: > 100 µM (inactive)
GI50 [51]: > 100 µM (inactive)
GI50 [52]: > 100 µM (inactive)

CCc1cccc(CC)c1NC(=O)C1=C(C)NC(C)=C(C(=O)Nc2c(CC)cccc2CC)C1c1ccc2c(c1)OCO2
GI50 [1]: 14.9 µM (inactive)
GI50 [2]: 16.7 µM (inactive)
GI50 [53]: 3.66 µM (inactive)
GI50 [4]: 25.8 µM (inactive)
GI50 [6]: 22.5 µM (inactive)
GI50 [7]: 13.9 µM (inactive)
GI50 [8]: 18.6 µM (inactive)
GI50 [10]: 13.3 µM (inactive)
GI50 [11]: 13.9 µM (inactive)
GI50 [12]: 24.3 µM (inactive)
GI50 [13]: 18.2 µM (inactive)
GI50 [14]: 21.6 µM (inactive)
GI50 [15]: 18.1 µM (inactive)
GI50 [16]: 56.8 µM (inactive)
GI50 [54]: 19.4 µM (inactive)
GI50 [18]: 15.6 µM (inactive)
GI50 [55]: 33.6 µM (inactive)
GI50 [56]: 20.1 µM (inactive)
GI50 [19]: 19.2 µM (inactive)
GI50 [20]: 15.3 µM (inactive)
GI50 [21]: 20.4 µM (inactive)
GI50 [22]: 14 µM (inactive)
GI50 [23]: 13.4 µM (inactive)
GI50 [24]: 25.9 µM (inactive)
GI50 [25]: 15.9 µM (inactive)
GI50 [26]: 15 µM (inactive)
GI50 [27]: 18.5 µM (inactive)
GI50 [57]: 14 µM (inactive)
GI50 [28]: 16.6 µM (inactive)
GI50 [29]: 22.5 µM (inactive)
GI50 [30]: 17.1 µM (inactive)
GI50 [31]: 17.9 µM (inactive)
GI50 [32]: 12.6 µM (inactive)
GI50 [33]: 18.8 µM (inactive)
GI50 [34]: 12.4 µM
GI50 [35]: 19.9 µM (inactive)
GI50 [58]: 15.9 µM (inactive)
GI50 [59]: 16.4 µM (inactive)
GI50 [36]: 21.7 µM (inactive)
GI50 [37]: 20 µM (inactive)
GI50 [38]: 22.6 µM (inactive)
GI50 [39]: 16.9 µM (inactive)
GI50 [40]: 17.7 µM (inactive)
GI50 [41]: 17 µM (inactive)
GI50 [42]: 18.1 µM (inactive)
GI50 [43]: 8 µM (inactive)
GI50 [45]: 18.8 µM (inactive)
GI50 [46]: 14 µM (inactive)
GI50 [47]: 12.7 µM (inactive)
GI50 [48]: 13.8 µM (inactive)
GI50 [60]: 16.8 µM (inactive)
GI50 [49]: 17.4 µM (inactive)
GI50 [50]: 5.93 µM (inactive)
GI50 [51]: 17.6 µM (inactive)
GI50 [52]: 20.6 µM (inactive)
